In this assay the target is T1, 5-HT2AR (CHO-5-HT2A cell membranes) (Homo sapiens, UniProt P28223).
T1 construct: gene HTR2A; membranes from CHO-5-HT2A cell line prepared in the authors' laboratory
Nature of the assay: [3H]ketanserin competition binding, CHO-5-HT2A membranes. The following applies: […] °C, […] min, orthosteric site.

Molecules are shown by their SMILES. Structures can show the parent of a compound that is named as a salt.

T1 sequence (P28223 whole entry): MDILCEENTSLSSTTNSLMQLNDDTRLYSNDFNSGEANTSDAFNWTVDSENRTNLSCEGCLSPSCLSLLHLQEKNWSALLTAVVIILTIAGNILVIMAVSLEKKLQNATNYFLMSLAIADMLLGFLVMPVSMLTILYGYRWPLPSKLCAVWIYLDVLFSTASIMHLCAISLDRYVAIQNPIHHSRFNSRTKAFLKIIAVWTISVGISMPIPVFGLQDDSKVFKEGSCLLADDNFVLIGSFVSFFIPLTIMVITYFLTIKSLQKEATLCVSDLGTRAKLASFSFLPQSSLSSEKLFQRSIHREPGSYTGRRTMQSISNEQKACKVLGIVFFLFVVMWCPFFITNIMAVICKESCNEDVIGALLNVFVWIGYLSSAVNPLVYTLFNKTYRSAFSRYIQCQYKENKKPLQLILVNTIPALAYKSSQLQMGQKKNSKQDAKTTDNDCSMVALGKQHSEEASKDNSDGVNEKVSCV

Consider `NCCc1c[nH]c2ccc(-c3ccc4c(c3)OCCO4)cc12` [OTV1, 2-[5-(2,3-dihydro-1,4-benzodioxin-6-yl)-1H-indol-3-yl]ethan-1-amine Hydrochloride], for which the pKi entry is “Ligand binding affinities (pKi) are indicated for Nitro-I, Met-I, OTV1 and OTV2”.
